Reference: US20090298956A1, “SELF-PRESERVED EMULSIONS” (priority 2008, published 2009)

How the values were obtained:
Assay type in all cases: cell-based
S. aureus = experiment: Preservative efficacy test (PET), log reduction of S. aureus; details: 24 hours, PET Screen International
Procedure: (§1) The antimicrobial activity and stability of the formulations shown in Table 1A below, which contain either 0.1 or 0.2 (w/v %) of Compound 1 were evaluated. Table 1A also contains an emulsion formulation (Formulation C) consisting of Cyclosporin and Compound 1. Table 1B constitutes overall standard preservative efficacy test (PET Screen International) results along with the results of a visual assessment of physical stability of the emulsions. […] Histograms for Formulation B, showing the initial particle size measurements as well as 60 weeks, can be seen in FIGS. 1A & 1B. Similarly, histograms for Formulation C, containing 0.05% Cyclosporin, showing the initial particle size measurements as well as at 62 weeks, can be seen in FIGS. 2A & 2B. […] The microbiological evaluation was conducted by determining the extent to which the emulsions reduced an initial population of about 10^6 cfu/mL microorganisms over time. The abbreviation “cfu” means colony forming unit. […] Overall EPA requirement of preservation in all tested formulations was achieved. The microbiology results are provided in greater detail in Table 1C, where the results of the evaluation of five microorganisms are provided.

P. aeruginosa = experiment: Preservative efficacy test (PET), log reduction of P. aeruginosa; details: 24 hours, PET Screen International
Procedure: as §1

E. coli = experiment: Preservative efficacy test (PET), log reduction of E. coli; details: 24 hours, PET Screen International
Procedure: as §1

C. albicans = experiment: Preservative efficacy test (PET), log reduction of C. albicans; details: 7 days, PET Screen International
Procedure: as §1

Work on “sodium coco-diimonium chloride phosphate [Compound 1]” yielded a log reductions (S. aureus; 0.1% Compound 1 emulsion) of 5 log, a log reductions (S. aureus; 0.2% Compound 1 emulsion) of 5 log and a log reductions (P. aeruginosa; 0.1% Compound 1 emulsion) of 5 log. The log reductions (P. aeruginosa; 0.2% Compound 1 emulsion) was 5 log, the log reductions (E. coli; 0.1% Compound 1 emulsion) was 5 log and the log reductions (E. coli; 0.2% Compound 1 emulsion) was 5 log. The log reductions (C. albicans; 0.1% Compound 1 emulsion) was “approximately 5 log” and the log reductions (C. albicans; 0.2% Compound 1 emulsion) was “approximately 5 log”.
